# What was measured:
# Type in all cases: functional
# [1] = tested on: Mycobacterium tuberculosis; assay: Antimycobacterial activity against fluoroquinolone-resistant Mycobacterium tuberculosis H37Rv FQ-R1 harboring unidentified mutation
# [2] = tested on: Mycobacterium tuberculosis; assay: Antimycobacterial activity against isoniazid-resistant Mycobacterium tuberculosis H37Rv ATCC 35822 INH-R2
# [3] = tested on: Mycobacterium tuberculosis; assay: Antimycobacterial activity against isoniazid-resistant Mycobacterium tuberculosis H37Rv INH-R1 harboring katG Y155 truncated mutant
# [4] = tested on: Mycobacterium tuberculosis; assay: Antimycobacterial activity against rifampicin-resistant Mycobacterium tuberculosis H37Rv RIF-R1 harboring rpoB S522L mutant
# [5] = tested on: Mycobacterium tuberculosis; assay: Antimycobacterial activity against rifampicin-resistant Mycobacterium tuberculosis H37Rv ATCC 35828 RIF-R2
# [6] = tested on: Mycobacterium tuberculosis; assay: Antimycobacterial activity against rifampicin-resistant Mycobacterium tuberculosis H37Rv ATCC 35828
# [7] = tested on: Mycobacterium tuberculosis; assay: Antimycobacterial activity against ofloxacin-resistant Mycobacterium tuberculosis H37Rv ATCC 35828
# [8] = tested on: Mycobacterium tuberculosis; assay: Antimycobacterial activity against isoniazid-resistant Mycobacterium tuberculosis H37Rv ATCC 35822
# [9] = tested on: Mycobacterium tuberculosis; assay: Antimycobacterial activity against streptomycin-resistant Mycobacterium tuberculosis H37Rv ATCC 35820 by microplate alamar blue assay
# [10] = tested on: Mycobacterium tuberculosis; assay: Antimycobacterial activity against kanamycin-resistant Mycobacterium tuberculosis H37Rv ATCC 3582
# [11] = tested on: Mycobacterium tuberculosis; assay: Antimycobacterial activity against ethionamide-resistant Mycobacterium tuberculosis H37Rv ATCC 35830
# [12] = tested on: Mycobacterium tuberculosis; assay: Antimycobacterial activity against ethambutol-resistant Mycobacterium tuberculosis H37Rv ATCC 35837
# [13] = tested on: Mycobacterium tuberculosis; assay: Antimycobacterial activity against streptomycin-resistant Mycobacterium tuberculosis H37Rv ATCC 35820
SMILES,MIC [1],MIC [2],MIC [3],MIC [4],MIC [5],MIC [8],also measured
C[C@H]1[C@H](C)CC[C@]2(CO)CC[C@]3(C)C(=CC[C@@H]4[C@@]5(C)CCCNC(C)(C)[C@@H]5CC[C@]43C)[C@@H]12,34 µg/mL,39 µg/mL,37 µg/mL,29 µg/mL,51 µg/mL,,
NNC(=O)c1ccncc1 [ISONIAZID],29 µg/mL,1.4 µg/mL,>200 µg/mL,1.2 µg/mL,1.3 µg/mL,,MIC [6]: 0.02 µg/mL
C=C(C)[C@@H]1CC[C@]2(COC(=O)/C=C/c3ccccc3)CC[C@]3(C)[C@H](CC[C@@H]4[C@@]5(C)CCCNC(C)(C)[C@@H]5CC[C@]43C)[C@@H]12,,,,,,4 µg/mL,MIC [7]: 1 µg/mL; MIC [6]: 1 µg/mL
COc1ccc(/C=C/C(=O)OC[C@]23CC[C@@H](C)[C@H](C)[C@@H]2C2=CC[C@@H]4[C@@]5(C)CCCNC(C)(C)[C@@H]5CC[C@@]4(C)[C@]2(C)CC3)cc1,20 µg/mL,17 µg/mL,20 µg/mL,24 µg/mL,21 µg/mL,,
CC1(C)CC[C@]2(COC(=O)/C=C/c3ccccc3)CC[C@]3(C)C(=CC[C@@H]4[C@@]5(C)CCCNC(C)(C)[C@@H]5CC[C@]43C)[C@H]2C1,13 µg/mL,12 µg/mL,13 µg/mL,7.4 µg/mL,14 µg/mL,,
C=C(C)[C@@H]1CC[C@]2(COC(=O)CCC(=O)O)CC[C@]3(C)[C@H](CC[C@@H]4[C@@]5(C)CCCNC(C)(C)[C@@H]5CC[C@]43C)[C@@H]12,,,,,,12 µg/mL,MIC [7]: 6 µg/mL; MIC [6]: 6 µg/mL
C[C@H]1[C@H](C)CC[C@]2(C(=O)O)CC[C@]3(C)C(=CC[C@@H]4[C@@]5(C)CC[C@H](O)C(C)(C)[C@@H]5CC[C@]43C)[C@H]12 [URSOLIC ACID],,,,,,,MIC [9]: 12.5 µg/mL
C[C@H]1[C@H](C)CC[C@]2(COC(=O)/C=C/c3ccccc3)CC[C@]3(C)C(=CC[C@@H]4[C@@]5(C)CCCNC(C)(C)[C@@H]5CC[C@]43C)[C@@H]12,27 µg/mL,15 µg/mL,28 µg/mL,19 µg/mL,24 µg/mL,,
C=C(C)[C@@H]1CC[C@]2(CO)CC[C@]3(C)[C@H](CC[C@@H]4[C@@]5(C)CCCNC(C)(C)[C@@H]5CC[C@]43C)[C@@H]12,,,,,,5 µg/mL,MIC [10]: 10 µg/mL; MIC [11]: 10 µg/mL; MIC [12]: 5 µg/mL; MIC [13]: 5 µg/mL
CO[C@H]1/C=C/O[C@@]2(C)Oc3c(C)c(O)c4c(O)c(c(/C=N/N5CCN(C)CC5)c(O)c4c3C2=O)NC(=O)/C(C)=C\C=C\[C@H](C)[C@H](O)[C@@H](C)[C@@H](O)[C@@H](C)[C@H](OC(C)=O)[C@@H]1C [RIFAMPIN],0.37 µg/mL,100 µg/mL,0.015 µg/mL,0.29 µg/mL,0.62 µg/mL,0.05 µg/mL,MIC [7]: 0.195 µg/mL
CC1(C)CC[C@]2(CO)CC[C@]3(C)C(=CC[C@@H]4[C@@]5(C)CCCNC(C)(C)[C@@H]5CC[C@]43C)[C@H]2C1,44 µg/mL,15 µg/mL,34 µg/mL,39 µg/mL,69 µg/mL,,
